Reference: PMC12608329, “Inhibition of α-Glucosidase Activity and Islet Amyloid PolyPeptide Fibril Formation by Rubus ulmifolius Fruit Extract: A Potential Therapeutic Approach for Type 2 Diabetes Mellitus” (Plants, 2025)
Blank lines part the entries; values can stand above or below the compound they belong to.

Key:
[1] = ABTS radical scavenging activity; settings: mean ± SD, three independent assays
Procedure: [50]. A volume of 10 μL of the extract was mixed with 1 mL of ABTS+ solution previously diluted to reach an absorbance of approximately 0.70 ± 0.05 (mean ± SD). After 1 min of incubation, the absorbance was recorded at 734 nm. Trolox (6-hydroxy-2,5,7,8-tetramethylchroman-2-carboxylic acid) was employed as the reference antioxidant. Results were expressed as the effective concentration required to achieve 50% reduction of the initial absorbance (EC50).

IAPP = test system: IAPP; set-up: method as in PMID 40305223; settings: cited from earlier work
[2] = test system: human islets exposed to amylin; set-up: method as in PMID 34614009; settings: cited from earlier work

ABTS EC50 [1]: 3.4 ± 0.3 µg/mL
Compound: Cc1c(C)c2c(c(C)c1O)CCC(C)(C(=O)O)O2 (centres unmarked) [Trolox, 6-hydroxy-2,5,7,8-tetramethylchroman-2-carboxylic acid]

Compound: COc1cc(/C=C/C(=O)CC(=O)/C=C/c2ccc(O)c(OC)c2)ccc1O [curcumin]
IAPP aggregation (IAPP): reduce IAPP aggregation

Compound: OC[C@H]1O[C@@H](Oc2cc3c(O)cc(O)cc3[o+]c2-c2ccc(O)c(O)c2)[C@H](O)[C@@H](O)[C@@H]1O [cyanidin 3-O-glucoside, cyanidin-3-O-glucoside]
amyloid formation in human islets exposed to amylin [2]: inhibit amyloid formation | cell viability of human islets exposed to amylin [2]: increase cell viability

Compound: epigallocatechin 3-gallate
IAPP aggregation (IAPP): reduce IAPP aggregation
